This is an account of results in article PMC3070735, “Uremic Toxins Inhibit Transport by Breast Cancer Resistance Protein and Multidrug Resistance Protein 4 at Clinically Relevant Concentrations” (PLoS ONE, 2011).

Structures can show the parent of a compound that is named as a salt. Where two headings read alike, the source gives them in different places. Marks after values point to notes of the source that are not given here.

For series [1] the following is noted: plasma of CKD patients, cited from earlier work.
Series [2] is described as follows: Plasma concentrations of uremic toxins in CRF and ESRD patients and healthy controls (HPLC, LC/MS-MS). The class given is in vivo, human. Here is the method:
Blood samples were obtained from 4 patients with chronic renal failure (CRF) during regular check-up, 6 patients with end-stage renal disease (ESRD) before hemodialysis and 4 healthy controls. None of the subjects had been fasting at the time of blood sampling. Blood was collected in an EDTA Vacutainer and was immediately centrifuged at 3,000 x g for 10 min. Subsequently, plasma was collected and stored at −20°C. Before chromatography an aliquot of plasma was diluted in H2O (1∶1) and deproteinized with perchloric acid (final concentration 3.3% (v/v)). Next, samples were centrifuged at 12,000 x g for 3 min and 50 µl of the supernatant was injected into the HPLC-system (Spectra-Physics Analytical, Spectrasystem SCM400). […] Separation was performed at a flow rate of 1 ml/min with eluent A (95% (v/v) H2O, 5% (v/v) acetonitril and 0.1% (v/v) heptafluorobutyric acid) and eluent B (50% (v/v) H2O, 50% (v/v) acetonitrile and 0.1% (v/v) heptafluorobutyric acid) under the following gradient conditions: 0–1 min, 100% eluent A; 1–15 min, 100–25% eluent A; 15–17 min, 25% eluent A; 17–18 min, […]; 18–23 min, 100% eluent A. The compounds were detected at a wavelength of 230 nm. For the detection of phenylacetic acid, chromatography was performed on a C18 HPLC column (Polaris 3 C18-A 150×4.6 mm; Varian, Middelburg, the Netherlands) with eluent A (97% (v/v) 50 mM sodium phosphate buffer [pH 6.5] and 3% (v/v) methanol) and eluent B (50% (v/v) H2O, 49% (v/v) acetonitrile and 1% (v/v) tetrahydrofuran) using the following gradient: 0–1 min, 100% eluent A; 1–15 min, 100–90% eluent A; 15–18 min, 10–100% eluent B; 18–22 min, 100% eluent B; 22–25 min, 0–100% eluent A; 25–30 min, 100% eluent A. The flow rate was 1 ml/min and phenylacetic acid was measured at a wavelength of 215 nm. Standards of the compounds were also run in order to quantify the amount of toxins found in the samples. Acquired data were processed with PC1000 software (Spectrasystem).
To determine the levels of kynurenic acid, blood was collected from CRF patients and processed as described above. Subsequently, 10 µl of the clear supernatant was injected into the LC/MS-MS system that consisted of an Accela HPLC system (Thermo scientific, Breda, the Netherlands) equipped with a C18 HPLC column (VisionHT C18 B 100×2 mm, 1.5 µm; Grace). Separation was performed at a flow rate of 150 µl/min with eluent A (5 mM ammonium formate+0.01% (v/v) trifluoroacetic acid) and eluent B (50% acetonitrile) under the following gradient conditions: 0–10 min, 98–50% eluent A; 10–15 min, 50% eluent A; 15–16 min, 50–98% eluent A; 16–21 min, 98% eluent A. The fractions eluted were directly passed through a TSQ Vantage tandem mass spectrometer (Thermo scientific) equipped with an electro-spray ionization source operating in the positive ion mode. The ion spray voltage was 4 kV, source temperature was 350°C and collision gas pressure was 1.5 bar. Kynurinic acid and the internal standard 1-methyl-tryptophan were quantified by selected reaction monitoring (SRM). […] Acquired data were processed with Thermo Xcaliber software (Thermo scientific).

Series [3] in a line: Uremic plasma concentrations (Cu, Cmax) in CKD patients from the EUTox database and literature. The class given is in vivo, human. As to conditions: calculated as Cmax = Cu + 2 SD; read-out: Hypothetical Cmax.
Description: The calculated Ki and IC20 values were compared with the mean plasma concentrations measured in ESRD patients during this study (Cm), the highest mean/median (Cu) and the highest maximal plasma concentrations (Cmax) measured in the literature in patients with CKD are also shown. The IC20 value was used since we believe that a 20% decrease in transport can already have a clinical impact. The Cu and Cmax values were obtained from the online database of the European Uremic Toxin (EUTox) Work Group (www.uremic-toxins.org; [19]), unless stated otherwise.
Where [4] appears, read: CRF patients (n = 4), total plasma.
The mark [5] stands for this setting: ESRD patients (n = 6), total plasma.
Setting [6] is: healthy controls (n = 4), total plasma.

With `O=C(O)CNC(=O)c1ccccc1` [hippuric acid], in series [1] (ref www.uremic-toxins.org [19]), the “Cu, highest mean/median uremic concentration” value is on record as 1380 µM and the “Cu, highest median uremic concentration” value is recorded as 1.4 mM. Further, in series [1] (ref www.uremic-toxins.org [19], read-out: Cmax, maximal uremic concentration), the Cmax was 2600 µM. Also, in series [2] (human, in vivo), the “Cm, mean plasma concentration determined in this study” value (“Cm, mean plasma concentration” for short) came out at 160 µM.

Regarding `O=C(O)Cc1c[nH]c2ccccc12` [indole-3-acetic acid], the “Cm, mean plasma concentration” value in series [2] (human, in vivo) was 4 µM.

Take `O=S(=O)(O)Oc1c[nH]c2ccccc12` [indoxyl sulfate]: the “Cu, highest mean/median uremic concentration” value in series [1] (ref www.uremic-toxins.org [19]) is recorded as 211 µM. The values for the Mean plasma concentration in series [2] (setting [4]) and in series [2] (setting [6]) were 65 µM and 13 µM, respectively. The “Cm, mean plasma concentration” value in series [2] (setting [5]) was found to be 129 µM.

Regarding `O=C(O)c1cc(=O)c2ccccc2[nH]1` [kynurenic acid], the “Cm, mean plasma concentration” value in series [2] (human, in vivo) was 1 µM.

For `O=C(O)Cc1ccccc1` [phenylacetic acid], the Cmax in series [3] was 7700 µM. Also, the “Cu, highest median plasma concentration” value in series [1] was 3.5 mM. Also, the “Cu, highest mean/median uremic concentration” value in series [1] (obtained from literature) is given as 3490 ^a µM. Further, the Maximum plasma concentration in series [2] (CRF patients) is given as 9 µM; in series [2] (ESRD patients), 83 µM. For the same compound, the Mean plasma concentration in series [2] (setting [4]) came to 4 µM; in series [2] (setting [6]), 5 µM. Further, the “Cm, mean plasma concentration” value in series [2] (setting [5]) is 18 µM.
